{
  "source": "paper PMC10199020",
  "about": "(Nature Communications, 2023)",
  "target": "T1, NL-IL12Rβ1 (Homo sapiens, UniProt P42701)",
  "T1 construct": "expressed in transfected cells; host or cells: HEK293T, transient transfection",
  "assay": "P630-TMR NanoBRET binding assay, NL-IL12Rβ1 alone",
  "conditions": "for Specific binding BRET ratio (Mean): Fig. 2h, NL-IL12RB1",
  "text": "Fig. 2 Creation and characterisation of a fluorescent cyclic peptide probe for IL23R. […] Data are normally mean ± SEM from five independent experiments. Details on absolute number of data points included for each concentration are provided in the associated Source Data file. In each individual saturation experiment triplicate determinations were normally made for total binding and duplicate measurements were made for non-specific binding.\nFinally, we utilised a NanoBiT BRET system in which a complemented luciferase with fragments bound to both receptor subunits (Fig. 3) can be used as a BRET donor to measure interactions with binary receptor complexes.\nMedia was removed from white 96-well microplates containing transfected cells and replaced with fluoroprobe in the presence or absence of antagonist in 50 μL Hanks Balanced Salt Solution (HBSS) with 1 mg/mL BSA (Merck). After a 1-hour incubation at 37 °C without CO2, 5 μL of HBSS containing 77 μM furimizine was added to each well (final concentration 7 μM), the plate incubated for 5-minutes and the BRET signal measured using a PheraStar FS plate reader (BMG Labtech; data acquisition software version 5.41; MARS analysis software version 3.32) with a 450 ± 30 nm and >550 nm long pass filters.\nSpecific binding data was generated by subtracting the BRET values gained in the presence of an excess of unlabelled probe from the BRET ratios gained in the absence of unlabelled probe. Specific binding data were fit using the equation:3 Y=Bmax[B]/(B+KD) where ‘Bmax’ is the maximum specific binding signal of the curve and ‘[B]’ is the concentration of fluorescent probe.",
  "note": "Entries after “also recorded” stand apart in the source; their conditions may differ. Bridge positions count the residues as written; N and C are the ends. Square brackets hold non-standard residues; d marks the D form. Peptide text beside a SMILES is read from it. * marks the point of attachment. 5TAMRA = CN(C)c1ccc2c(c1)Oc1cc(N(C)C)ccc1C21OC(=O)c2cc(C(=O)*)ccc21; 2Nal = N[C@@H](Cc1ccc2ccccc2c1)C(=O)O; Pen = CC(C)(S)[C@H](N)C(=O)O; Aib = CC(C)(N)C(=O)O",
  "data": [
    {"smiles": "COc1ccc(C[C@H](NC(=O)[C@H]2NC(=O)[C@H](CCC(N)=O)NC(=O)[C@H](Cc3c[nH]c4ccccc34)NC(=O)[C@H]([C@@H](C)O)NC(=O)[C@H](CC(N)=O)NC(=O)[C@@H](NC(C)=O)C(C)(C)SSC2(C)C)C(=O)N[C@@H](Cc2ccc3ccccc3c2)C(=O)NC(C)(C)C(=O)N[C@@H](CCC(=O)O)C(=O)N[C@@H](CC(N)=O)C(=O)N[C@@H](CC(N)=O)C(=O)N[C@@H](CCCCNC(=O)c2ccc3c(c2)C(=O)OC32c3ccc(N(C)C)cc3Oc3cc(N(C)C)ccc32)C(N)=O)cc1", "note": "[P630-TMR] (Ac-[Pen]NTWQ[Pen]Y(Me)[2Nal][Aib]ENNK(5TAMRA)-NH2; disulfide 1-6)", "values": [
      {"measurement": "Specific binding BRET ratio (Mean)", "setting": "P630-TMR 1.37174 nM", "result": -0.001356},
      {"measurement": "Specific binding BRET ratio (Mean)", "setting": "P630-TMR 4.11523 nM", "result": 0.00137},
      {"measurement": "Specific binding BRET ratio (Mean)", "setting": "P630-TMR 12.3457 nM", "result": 0.0001891},
      {"measurement": "Specific binding BRET ratio (Mean)", "setting": "P630-TMR 37.037 nM", "result": 0.00136},
      {"measurement": "Specific binding BRET ratio (Mean)", "setting": "P630-TMR 111.111 nM", "result": 0.002083},
      {"measurement": "Specific binding BRET ratio (Mean)", "setting": "P630-TMR 1000 nM", "result": 0.003104},
      {"measurement": "Specific binding BRET ratio (Mean)", "setting": "P630-TMR 3000 nM", "result": 0.002137},
      {"measurement": "Binding to cells expressing NL-IL12Rβ1 in isolation", "setting": "absence of IL23R", "result": "no specific binding; also recorded: Did not bind"}
    ]}
  ]
}
